Reference: patent US6492137B1, “Response element compositions and assays employing same” (The Salk Institute for Biological Studies, priority 1989, dated 2002)

Key:
RARα = molecular target: T1, RARα (Homo sapiens, UniProt P10276); test: Gel retardation DNA-binding assay with RARα-expressing COS cell extracts; parameters: expressed in transfected cells; host or cells: COS cells (whole-cell extract); details: unlabeled competitor oligonucleotide; COS cell extracts
T1 sequence (P10276 1-462): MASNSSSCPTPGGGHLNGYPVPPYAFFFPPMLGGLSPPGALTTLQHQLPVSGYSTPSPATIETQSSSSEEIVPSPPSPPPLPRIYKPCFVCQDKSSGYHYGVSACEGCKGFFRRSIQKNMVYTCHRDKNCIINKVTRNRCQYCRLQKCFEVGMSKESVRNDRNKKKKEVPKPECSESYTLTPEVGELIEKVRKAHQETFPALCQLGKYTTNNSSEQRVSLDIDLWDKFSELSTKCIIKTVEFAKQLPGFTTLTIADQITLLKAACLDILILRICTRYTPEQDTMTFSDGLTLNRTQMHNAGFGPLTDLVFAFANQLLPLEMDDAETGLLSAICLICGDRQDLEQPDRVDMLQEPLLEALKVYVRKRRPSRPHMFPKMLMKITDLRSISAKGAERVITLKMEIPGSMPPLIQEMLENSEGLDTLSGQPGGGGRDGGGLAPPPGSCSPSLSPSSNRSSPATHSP
Description: For DNA binding assays, COS cells were cultured in DMEM with 10% calf bovine serum and transfected by the calcium phosphate method with 20 μg of the pCMX receptor expression plasmid for 6 hours followed by a glycerol shock. After incubating the transfected COS cells for another 48 hours, the cells were harvested to prepare extracts for the DNA binding assay, carried out as described by Damm et al., Nature 339: 593-597 (1989). The extracts were made in 20 mM HEPES (pH 7.4), 0.4 M KCl, 2 mM DTT and 20% glycerol. A similar method was employed to prepare a whole cell extract from F9 stem cells. For the binding, 5 μg (COS) or 10 μg (F9) of proteins was incubated on ice for 20 minutes, first in 20 mM HEPES, 80 mM KCl, 1 mM DTT, 0.1% NP40, 2.5 μg of poly dI/dC, and 10% glycerol (cold competitor oligonucleotides, when included, were added during this pre-incubation period). Then 40 fmole of ^32P-labeled oligonucleotide probe (1-2×10^5 cpm, prepared by filling-in reaction using Klenow polymerase in the presence of α-^32P-dCTP) was added to the reaction mixture, followed by incubation at room temperature for 30 minutes. The receptor-DNA complexes were resolved by electrophoresis through 5% polyacrylamide gel containing 5% glycerol at 6 V/cm at room temperature.
Oligonucleotides listed in FIG. 3 were used as a probe to test specific DNA-binding of the RARα and TRβ in a gel retardation assay. On the βRARE, a faint background binding activity was detected in the mock transfected COS cell extract. […] In each case the result obtained from in vivo transactivation and in vitro DNA binding are consistent.
Using the mobility shift assay, the DNA-binding capacity of extracts from COS cells expressing TRβ and RARα to these sequences was also tested. […] This pattern is consistent with that of the in vivo activation (FIG. 4). A reciprocal pattern was obtained when the same oligonucleotides were used to compete RARα binding to the ^32P-labeled βRARE. […] This provides a striking example of the role of half-site spacing in generating a functional response element.

TRβ = molecular target: T2, TRβ (Homo sapiens, UniProt P10828); test: Gel retardation DNA-binding assay with TRβ-expressing COS cell extracts; parameters: expressed in transfected cells; host or cells: COS cells (whole-cell extract); details: for TRβ binding to labeled oligonucleotide probe: gel retardation, TRβ COS cell extract; for competition for TRβ binding (mobility shift assay): unlabeled competitor oligonucleotide, COS cells expressing TRβ
T2 sequence (P10828 1-461): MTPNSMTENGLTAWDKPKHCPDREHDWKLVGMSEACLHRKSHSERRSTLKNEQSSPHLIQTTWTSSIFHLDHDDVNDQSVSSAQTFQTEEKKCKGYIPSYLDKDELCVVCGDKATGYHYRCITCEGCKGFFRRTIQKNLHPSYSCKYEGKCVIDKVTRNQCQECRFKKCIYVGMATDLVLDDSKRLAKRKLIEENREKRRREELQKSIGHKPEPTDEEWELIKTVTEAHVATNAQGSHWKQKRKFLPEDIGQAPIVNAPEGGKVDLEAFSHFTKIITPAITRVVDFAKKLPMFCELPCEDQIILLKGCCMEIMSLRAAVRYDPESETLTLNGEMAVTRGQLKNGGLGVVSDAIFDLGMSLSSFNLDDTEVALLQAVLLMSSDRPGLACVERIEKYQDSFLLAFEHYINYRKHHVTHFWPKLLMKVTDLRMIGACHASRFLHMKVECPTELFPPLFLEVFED
Method in brief: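 Extracts of COS cells transfected with pCMX TRβ expression plasmid, 48 h post-transfection; 5 μg protein pre-incubated on ice 20 min with poly dI/dC, then 40 fmole 32P-labelled oligonucleotide 30 min at room temperature. Complexes resolved on 5% polyacrylamide gel.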

[1] = test system: F9 teratocarcinoma stem cells; test: CAT reporter transfection into RA responsive F9 teratocarcinoma stem cells; format: cell-based, mouse; details: RA 1 μM, 24 hours; no transfected receptor
Description: For cotransfection assays, a monkey kidney cell line CV-1 was kept in Dulbecco's modified Eagle's medium (DMEM) supplemented with 10% charcoal-resin double split calf bovine serum. Transfections were performed via calcium-phosphate precipitation method as described by Umesono, et al. in Cell 57: 1139-1146 (1989), with 0.5 μg of a pRS receptor expression plasmid, 1.0 μg of a reporter CAT plasmid, 5 μg of pRAS-βGAL [Umesono, et al., Cell 57: 1139-1146 (1989)] as an internal control, and 8.5 μg of carrier plasmid pUC19. The cells were transfected for 8 hours; after washing the DNA precipitates, the cells were then incubated for an additional 36 hours with or without the ligand (T3, 100 nM; RA, 1 μM; 1,25-(OH)2 vitamin D3, 100 nM). Cell extracts were prepared for βGAL and CAT assays, as described by Umesono, et al., supra. Transfection of F9 teratocarcinoma cells was carried out employing a similar method except the cells were incubated for 12 hours in the presence of the DNA precipitates, and the RA was added at 1 μM for another 24 hours before harvesting the cells. 2, 5, and 4 μg of the reporter, pRAS-βGAL, and pUC19 were used, respectively.
Similarly, when the same set of reporters as in FIG. 4 were transfected into F9 cells, only MHC-R (5-nucleotide spacer) and TREp are potent RAREs. In contrast, its RARE antecedents (MHC-N, MHC+1, MHC-T) are inert.

| Substance | competition for RARα binding to 32P-labeled βRARE (RARα) | competition for TRβ binding to 32P-labeled MHC-N (TRβ; 50-fold excess of unlabeled oligonucleotide, COS cell extracts) | TRβ binding to labeled oligonucleotide probe (TRβ) | TRβ binding to labeled oligonucleotide probe (TRβ; listed as MHC-TRE) | competition for TRβ binding (mobility shift assay) (TRβ) | function as RARE in F9 cells [1] |
| --- | --- | --- | --- | --- | --- | --- |
| MHC-N: 23-nucleotide core of the wild-type sequence (MHC-TRE) (SEQ ID NO:14) (AGCTGGAGGTGACAGGAGGACAGCAAGCT; DNA, backbone not given here; further chemistry not fully specified) | fails to compete at all | competed | specific binding | high affinity | efficient competition | inert |
| TREp: optimized palindromic rat growth hormone TRE (SEQ ID NO:10) (AGCTTCAGGTCATGACCTGAGAGCT; DNA, backbone not given here; double-stranded response element with agct overhangs, cloned into reporter plasmid) [reference compound] | effective competitors | – | – | – | efficient competition | potent RAREs |
